The values that follow come from patent US20160046616A1, “NRF2 SMALL MOLECULE INHIBITORS FOR CANCER THERAPY” (THE JOHNS HOPKINS UNIVERSITY, priority 2013, published 2016).

SMILES strings stand for the structures. “Also recorded” adds a separate entry of the source.

Data set [1] concerns H838 NRF2-ARE-Fluc stable cell line. Kind of data set: H838 Nrf2 assay: NRF2-ARE firefly luciferase reporter gene assay. Format: cell-based. The conditions noted are these: Homo sapiens, NCI-H838, read-out: Potency of inhibition, H838. From the text:
H838 is a NSCLC cell line with LOF Keap1 activity and constitutive translocation of NRF2 into the nucleus. A firefly luciferase reporter construct driven by a minimal promoter of NRF2-specific ARE is stably expressed in the H838 cells. This cell line was used as a confirmation assay to make sure hits identified from primary screening and that passed counterscreen assays worked in different cell types with a constitutively active NRF2 pathway (deficiency in Keap1).
This assay was very similar to the primary assay except that the cell line was changed. […] The final concentration of DMSO was maintained at 0.46%. Control compounds Budesonide and Staurosporine were both added at a concentration of 2 mM and Budesonide was also added as a 1:10 titration, starting at 200 μM, to achieve dose-response. After an 18-24 hour incubation at 37° C., 95% humidity, and 5% CO2, 1 μL of 5× CellTiter-Fluor non-lytic cell viability assay reagent (Promega, Madison Wis.) was added into the each well of the plates. The plates were then incubated for 30 minutes at room temperature before they were read on a ViewLux plate imager (Perkin Elmer, Waltham Mass.) using an excitation wavelength of 405 nm and an emission wavelength of 525 nm.
Representative compounds were assayed to assess the potency of inhibition in an A549 NRF2-ARE-Fluc stable cell line (A549 Nrf2 assay), in an H838 NRF2-ARE-Fluc stable cell line (H838 Nrf2 assay), and in an H1437 NRF2-ARE-Fluc stable cell line (H1437 Nrf2 assay) (see Table 3).

Data set [2] concerns the target T1, Nrf2-MAFG protein complex binding to fluorescein labeled ARE oligos (Homo sapiens, UniProt Q16236).
T1 construct: made in house
T1 sequence (Q16236 1-605): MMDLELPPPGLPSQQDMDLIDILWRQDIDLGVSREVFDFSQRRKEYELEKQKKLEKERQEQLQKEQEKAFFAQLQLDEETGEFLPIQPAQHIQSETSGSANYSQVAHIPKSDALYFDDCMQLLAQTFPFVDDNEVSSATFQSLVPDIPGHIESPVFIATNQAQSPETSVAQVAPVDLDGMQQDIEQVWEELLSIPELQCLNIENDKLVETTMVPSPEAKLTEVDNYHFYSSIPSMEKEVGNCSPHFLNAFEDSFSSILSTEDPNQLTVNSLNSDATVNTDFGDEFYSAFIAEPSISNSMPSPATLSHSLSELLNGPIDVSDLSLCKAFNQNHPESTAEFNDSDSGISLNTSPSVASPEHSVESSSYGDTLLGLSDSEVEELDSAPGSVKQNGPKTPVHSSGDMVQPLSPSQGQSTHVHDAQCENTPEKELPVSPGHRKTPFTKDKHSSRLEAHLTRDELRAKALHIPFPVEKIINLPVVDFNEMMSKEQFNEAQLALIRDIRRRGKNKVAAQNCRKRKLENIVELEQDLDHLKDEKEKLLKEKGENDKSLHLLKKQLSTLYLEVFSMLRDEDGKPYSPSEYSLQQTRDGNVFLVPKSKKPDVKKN
The data set is described as follows: Fluorescence polarization (FP) assay of DNA binding. It is filed as biochemical. Conditions: increasing concentration of Nrf2 inhibitor. The protocol:
To determine if the presently disclosed small molecule inhibitors were specifically interacting with Nrf2 or the Nrf2-MAF protein complex, a fluorescence polarization assay was developed. Ammonium aurintricarboxylate, a potent inhibitor of protein-nucleic acid interactions was used as positive control in the assay. The concentration of budesonide was 10 μM in the assay.
FP assay data showing inhibition of binding of Nrf2-MAFG protein complex to fluorescein labeled ARE oligos in the presence of compound 1 (FIG. 2), compound 4 (FIG. 3), and compound 3 (FIG. 4) are shown. Ammonium aurintricarboxylate (ATA-10 μM), a well-known inhibitor of DNA binding activity, was included as positive control. […] X-axis represents increasing concentration of Nrf2 inhibitor.
Briefly, fluorescein-labeled oligonucleotides corresponding to Anti-oxidant Response Element (ARE) were diluted to the appropriate concentration in PBS. Nrf2/MafG heterodimer was prepared by gel filtration with mixed samples of purified Nrf2 and MafG proteins. MafG/Nrf2 complex was then diluted with the buffer containing Nrf2 inhibitors or buffer only to the appropriate starting concentration and then serially diluted and incubated at 4° C. for 1 h. A mixture containing fluorescein-labeled ARE and purified protein sample was incubated at 4° C. for another 1 h. After pre-warming samples to 25° C. for 2 to 3 min, fluorescence anisotropy and total intensity was measured for each dilution using a FlexStation 3 (Molecular Devices, LLC) in Basic Binding Assay-FP mode. Ammonium aurintricarboxylate (ATA-10 μM), a well-known inhibitor of DNA binding activity, was included as positive control.

Data set [3] in a line: In vivo pharmacokinetic plasma profile. Conditions: CD-1 mice; for Compound retained in the blood until / Time by which most of the compound is cleared from the blood: IP 30 mg/kg, IV 3 mg/kg, plasma. The protocol:
For the in vivo pharmacokinetic studies, single intraperitoneal (IP; 30 mg/kg) and intravenous (IV; 3 mg/kg) injection was carried out using CD-1 mice. (n=3 per group/time point). Compounds in the plasma were quantified using Mass Spectrometry.

The subject of data set [4] is Rhabdomyosarcoma cells (Rh30). The data set is described as follows: Growth of rhabdomyosarcoma cells (clonogenic / soft agar). It is filed as cell-based. The conditions noted are these: for Growth of rhabdomyosarcoma cells, clonogenic assay, single agent: single agents. The protocol:
(A) Ewing sarcoma cells (A4573) cells were on soft agar and treated with doxorubicin (2 nM) singly or in combination with compound 4 (10 μM) for 72 h. At the end of treatment, regular growth media was added and cells were further incubated for 8-10 days and colonies were stained with crystal violet and counted. (B) Rhabdomyosarcoma cells (Rh30) cells were on soft agar and treated with doxorubicin (2 nM) and etoposide (5-nM) singly or in combination with compound 4 (10 μM) for 72 h. At the end of treatment, regular growth media was added and cells were further incubated for 8-10 days and colonies were stained with crystal violet and counted;
(§1) For the clonogenic assays, 1,000 cells/well were plated in a 6-well plate. The next day, the cells were treated with vehicle (DMSO), Nrf2 inhibitor, a chemotherapeutic drug, or a combination of Nrf2 and chemotherapeutic drugs for 48 hrs. The drug containing media was then replaced with regular growth media and the cells were incubated for an additional 10 days. At the end of incubation period, the colonies were stained with Crystal Violet and imaged.

The test system of another data set is osteosarcoma cells. The data set is described as follows: Clonogenic assay in osteosarcoma cells. Format: cell-based. The conditions noted are these: for Growth of osteosarcoma cells, single agent: single agents. On the procedure:
as §1

Data set [5] relates to pancreatic cancer cells (Panc1). The data set is described as follows: Clonogenic assay in Panc1 pancreatic cancer cells. Format: cell-based. The conditions noted are these: for Growth of Panc1 cells, combination with gemcitabine: gemcitabine (10 nM in figure legends). The protocol: (A-B) Panc1 and MiaPaCa cells were treated gemcitabine (10 nM) singly or in combination with compound 1 for 72 h. At the end of treatment, regular growth media was added and cells were further incubated for 8-10 days and stained with crystal violet;
as §1

For the compound `O=C(Nc1ncc(Cc2ccc(C(F)(F)F)cc2)s1)c1ccc(-c2cccc([N+](=O)[O-])c2)o1` [Compound 1], the IC50 in data set [1] was < 5 µM. The “Binding of Nrf2-MAFG protein complex to fluorescein labeled ARE oligos” value (“Binding of Nrf2-MAFG protein complex” below) in data set [2] was “Dose dependent reduction in binding”. In addition, in data set [3], the “Retention time in the blood, comparison of compounds 3, 4 and 1” value was “retained in the blood for the longest time”; the “Compound retained in the blood until” value is listed as “about 24 hr”. Besides, the “Growth of rhabdomyosarcoma cells, clonogenic assay, single agent” value (“Growth of rhabdomyosarcoma cells” below) in data set [4] is listed as “suppress growth of rhabdomyosarcoma cells”. For the same compound, in the data set on osteosarcoma cells, the “Growth of osteosarcoma cells, combination with doxorubicin” value (“Growth … with doxorubicin” below) is recorded as “suppressed the growth of osteosarcoma cells” and the “Growth of osteosarcoma cells, single agent” value is recorded as “suppressed the growth of osteosarcoma cells”. For the same compound, in data set [5], the “Growth of Panc1 cells, single agent” value was “suppressed the growth of two different pancreatic cell lines” and the “Growth of Panc1 cells, combination with gemcitabine” value (shortened to “Growth of Panc1 cells, combination”) was “enhance the cytotoxicity of gemcitabine; also recorded: potentiates the cytotoxicity of standard care chemotherapy drugs (gemcitabine)”.

For `Cc1ccccc1C(=O)N1CCc2cc(-c3nc(NC(=O)Cc4ccc5c(c4)OCO5)sc3C)ccc21` [compound 4], the IC50 in data set [1] was in the range of 5 to 25 µM. Besides, the “Binding of Nrf2-MAFG protein complex” value in data set [2] is “Dose dependent reduction in binding”. Also, in data set [3], the “Compound retained in the blood until” value is listed as “about 12 hr” and the “Time by which most of the compound is cleared from the blood” value is ≤ 24 h. The “Colony growth of Rh30 cells on soft agar, combination” value in data set [4] (10 μM with doxorubicin (2 nM) and etoposide, 72 h) is listed as “potentiates the cytotoxicity of standard care chemotherapy drugs”. In data set [4] (10 μM, 72 h), the “Colony growth of Rh30 cells on soft agar, single agent” value is “significant growth inhibitory activity as single agent”. Further, in data set [4], the “Growth of rhabdomyosarcoma cells” value is given as “suppress growth of rhabdomyosarcoma cells”. Besides, in the data set with osteosarcoma cells, the “Growth … with doxorubicin” value is recorded as “suppressed the growth of osteosarcoma cells” and the “Growth of osteosarcoma cells, single agent” value was “suppressed the growth of osteosarcoma cells”. In addition, in data set [5], the “Growth of Panc1 cells, single agent” value is given as “suppressed the growth of two different pancreatic cell lines; also recorded: significant growth inhibitory activity as single agent” and the “Growth of Panc1 cells, combination” value is listed as “enhance the cytotoxicity of gemcitabine; also recorded: potentiates the cytotoxicity of standard care chemotherapy drugs (gemcitabine)”.

For `CC1(C)CC2CC(C)(CN2S(=O)(=O)c2ccc(C(=O)Nc3ccc(Cl)c(S(=O)(=O)N4CCOCC4)c3)cc2)C1` (centres unmarked) [compound 3], in data set [1], the IC50 was < 5 µM. The “Binding of Nrf2-MAFG protein complex” value in data set [2] is reported as “Dose dependent reduction in binding”. In data set [3], the “Retention time in the blood, comparison of compounds 3, 4 and 1” value is on record as “cleared the fastest”; the “Time by which most of the compound is cleared from the blood” value is on record as “about 8 hrs”. Further, in data set [4], the “Growth of rhabdomyosarcoma cells” value is recorded as “suppress growth of rhabdomyosarcoma cells”. For the same compound, in the data set on osteosarcoma cells, the “Growth … with doxorubicin” value is “suppressed the growth of osteosarcoma cells” and the “Growth of osteosarcoma cells, single agent” value is on record as “suppressed the growth of osteosarcoma cells”. In data set [5], the “Growth of Panc1 cells, single agent” value was “suppressed the growth of two different pancreatic cell lines; also recorded: significant growth inhibitory effect as a single agent” and the “Growth of Panc1 cells, combination” value is on record as “enhance the cytotoxicity of gemcitabine”.
